Test results taken from paper PMC12265377, “CC48 a new CB2R agonist/FAAH inhibitor dual drug blocks gastric cancer progression and overcomes paclitaxel resistance” (Journal of Experimental & Clinical Cancer Research : CR, 2025).
Read-outs that look alike come from different tables or passages of the source.

How the values were obtained:
AGS cells [1] = test: Migration (scratch) assay; assay type: cell-based, human; details: scratch assay 24 h, 6 µM AM630, 10 µM others
Description: (§1) HGC27-S/R and AGS cells were grown until confluence. A scratch wound was generated with a pipette tip. […] Photographs were taken of each well immediately (T0) and at various times, T1 (9 h), T2 (24 h), and T3 (48 h), using a Leica DMRXA camera (Leica Microsystems, Milan, Italy). The images were analyzed using ImageJ Software (http://rsb.info.nih.gov/ij/). The distance that cells migrated through the scratch area was determined by measuring the wound width at T1, T2 and T3 and subtracting it from the wound width at the start (T0). The relative migration rate was calculated by setting the percentage of migration of the control cells at time T2 equal to 1 and comparing the percentage of migration of the cells after each drug treatment to this value. The results are representative of three independent experiments.

HGC27-R cells [2] = test: Migration (scratch) assay; assay type: cell-based, human; details: scratch assay 24 h, highest concentration
Description: as §1

HGC27-S cells [3] = test: Migration (scratch) assay; assay type: cell-based, human; details: scratch assay 24 h, 6 µM AM630, 10 µM others
Description: as §1

HGC27-R cells [4] = test: Muse Ki67 cell proliferation assay; assay type: cell-based, human; details: for percentage of Ki67+ cells: combined with PTX (10 µM compound; 6 µM AM630)
Excerpt: (§2) After the specified drug treatments, the cells were processed with the Muse Ki67 cell proliferation kit, which identified actively proliferating cells based on the expression of Ki67, a nuclear protein present in the active phases of the cell cycle (G1, S, G2, and M phases) and absent in the resting G0 phase. The Muse Ki67 Proliferation Assay was used with the Guava Muse Cell Analyzer according to the manufacturer’s instructions (Luminex Corporation, Austin, USA). Briefly, the cells were stained after fixation and permeabilization procedures, using Hu Ki67 or Hu IgG1 control fluorochrome-conjugated antibodies to distinguish Ki67(+) or Ki67(-) cells, respectively. The software provided the percentage of both Ki67(+) and Ki67(-) cells.

HGC27-S cells [5] = test: Muse Ki67 cell proliferation assay; assay type: cell-based, human
Excerpt: as §2

HGC27-R cells [6] = test: ROS determination assay (DCF-DA); assay type: cell-based, human; details: 1 µM, 48 h, vs untreated cells
Description: (§3) For ROS analysis the procedure described in [26] was adapted. […] After the incubation, all the samples were incubated for 30 minutes at 37°C in the dark with 50 µM 2’,7’-dichlorofluorescein diacetate, DCF-DA.
(§4) Cells were then washed, detached with trypsin/EDTA solution, centrifuged at 12,000 g for 10 min and re-suspended in1mL PBS. At least 10.000 total events were acquired using an Attune Nxt Acoustic Focusing Cytometer (Life Technologies Corporation) equipped with a blue laser (488 nm). Analysis was performed and data were visualized using Attune™ NxT v2.6 Software. The percentage of green fluorescent cells and the green fluorescence median were measured on a mono-parametric histogram based on DCF-DA fluorescence.

HGC27-S cells [7] = test: ROS determination assay (DCF-DA); assay type: cell-based, human; details: 1 µM, 48 h, vs untreated cells
Description: as §3, §4

AGS cells [8] = test: Muse Annexin V apoptosis assay; assay type: cell-based, human; details: 48 h, 6 µM AM630, 10 µM others
Excerpt: (§5) After the specified drug treatments, the cells were processed using the Muse Annexin V/Dead Cell Assay Kit (Luminex Corporation, Austin, USA) for quantitative analysis of live, early/ late apoptotic, and dead cells on a Muse Cell Analyzer. Briefly, the assay utilized Annexin V to detect phosphatidylserine on the external membrane of apoptotic cells. The fluorescent signal emitted by dye-conjugated antibodies was detected by flow cytometry technology (Muse Cell Analyzer, Luminex Corporation, Austin, USA). 7-Amino-Actinomycin D (7-AAD) dead cell marker was also used. The cells were then analyzed according to the user’s guide. […] After 48 h treatments the cells were processed according to the user’s guide and analyzed with the Muse caspase-3/7 kit (Millipore).The assay provides the relative percentage of living, early/late apoptotic or dead cells.

HGC27-S cells [9] = test: Muse Annexin V apoptosis assay; assay type: cell-based, human; details: 48 h, 6 µM AM630, 10 µM others
Excerpt: as §5

NCI-N87 cells [10] = test: MTT cytotoxicity assay; assay type: cell-based, human; details: read-out: Cytotoxic activity IC50±SEM
CB1R = details: cited from earlier work
NCI-N87 cells [11] = test: Muse Ki67 cell proliferation assay; assay type: cell-based, human
Excerpt: as §2

AGS cells [12] = test: VEGFA in cell culture medium (ELISA); assay type: cell-based, human; details: 10 µM, 48 h, untreated 8.3
Description: (§6) The amount of VEGFA secreted in the culture medium by HGC27-S/R and AGS treated cells was measured using a highly sensitive Enzyme-Linked Immunosorbent Assay (ELISA), Quantikine Kit ELISA (R&D Systems, Minneapolis, MN, USA), according to the manufacturer’s instructions. The measured values were normalized to the number of cells.

HGC27-R cells [13] = test: VEGFA in cell culture medium (ELISA); assay type: cell-based, human; details: 10 µM, 48 h, untreated 10.5
Description: as §6

[14] = NCI-N87, single treatment (10 µM compound; 2 nM PTX), control 78.2%
[15] = representative flow cytometry chart, 48 h, 10 µM CC48, PTX, single or combined as labelled
[16] = HGC27-S, representative flow cytometry chart, 48 h, 10 µM CC48, PTX, single or combined as labelled

SMILES	relative migration rate (untreated cells = 1) (AGS cells [1])	relative migration rate (control cells = 1) (HGC27-R cells [2])	relative migration rate (untreated cells = 1) (HGC27-S cells [3])	percentage of Ki67+ cells (HGC27-R cells [4]) [%]	percentage of Ki67+ cells (HGC27-S cells [5]) [%]	ROS production (HGC27-R cells [6])	intracellular ROS production (HGC27-S cells [7])	increase in apoptotic cells compared to untreated cells (Annexin V) (AGS cells [8]) [fold]	increase in apoptotic cells compared to untreated cells (Annexin V) (HGC27-S cells [9]) [fold]	IC50 (NCI-N87 cells [10]; 48h) [µM]	IC50 (NCI-N87 cells [10]; 72h) [µM]	percentage of Ki67+ cells (NCI-N87 cells [11]; [14]) [%]	VEGFA secretion in culture medium (AGS cells [12]) [pg/mL/cell]	VEGFA secretion in culture medium (HGC27-R cells [13]) [pg/mL/cell]	further results
COc1ccc(C(=O)c2c(C)n(CCN3CCOCC3)c3cc(I)ccc23)cc1 [AM630, reference compound]	0.7	0.2	0.6	51.3	40.1	induced an increase in ROS production	significant increase in intracellular ROS production	8	8	22.7	15.6 ± 0.26				
CCCCCNc1ccccc1C(=O)NC12CC3CC(CC(C3)C1)C2 [ASF151]					38.6	induced an increase in ROS production				33.1	29.3 ± 3.84	68.3	4.4	8	CB1R affinity % at 1µM (percentage of displacement at 1 µM) (CB1R; 1 µM): 31%^23
O=C(NC12CC3CC(CC(C3)C1)C2)c1ccccc1OCc1ccccc1 [CC48]	0.8	0.76	0.6	67.9			significant increase in intracellular ROS production	6	2			60.9	5.8	6.5	Ki (CB1R; ± SEM, read-out: CB1R affinity Ki): 0.2413 ± 0.0024 µM; Ki67(+) cells (HGC27-R cells [4]; [15]): 84.00%; Ki67(-) cells (HGC27-R cells [4]; [15]): 16.00%; percentage of Ki67+ cells (HGC27-S cells [5]; HGC27-S, 48 h, combination with 4 nM PTX (10 µM compound; 6 µM AM630), PTX alone 58.1%): 42.3%; percentage of Ki67+ cells (HGC27-S cells [5]; HGC27-S, 48 h, single treatment (10 µM CC48; 4 nM PTX), control 80.50%): 75.75%; Ki67(+) cells (HGC27-S cells [5]; [16]): 75.75%; Ki67(-) cells (HGC27-S cells [5]; [16]): 24.25%; percentage of Ki67+ cells (NCI-N87 cells [11]; NCI-N87, cotreatment with PTX, PTX alone 68.1%): 59.9%; IC50 (NCI-N87 cells [10]; Homo sapiens, 48h): 15.1 µM; IC50 (NCI-N87 cells [10]; Homo sapiens, 72h): 9.42 ± 0.22 µM
